Like-named read-outs stand apart in the source and are kept apart here.
Key:
[1] = tested on: B16-F1 melanoma; test: Cytotoxicity assay, ATP detection, B16-F1; type: cell-based, mouse; details: B16-F1 cells in vitro, read-out: ED50 B16-F1
Procedure: (§1) The cytotoxicity tests were performed in 96-well microtiter plates (sterile white plates with clear bottom, Corning Costar Corporation, Cambridge, Mass., USA). The anthracyclines were pipetted into the plates in 10 μl of ethanol, pure ethanol was used for control plates. Daunorubicin and aclarubicin were used as positive controls. When the ethanol had evaporated, the cells were seeded into the plates in 100 μl of appropriate medium. The number of cells seeded per well was 2500 with MES-SA, 3000 with MES-SA/D×5, 3000 with LL/2, 2000 with B16-F0 and B16-F1, 2000 with KLN-205 and 8000 with MLTC-1. The ATP content of the cells was measured after incubating the cells for three days at 37° C. with 5% CO2.
(§2) The growth medium was removed by turning the plates over, and 200 μl of ATP extraction reagent, Somalyze, were added to the wells. The plates were then incubated for 30 minutes at room temperature. The ATP measurement was performed with Luminoskan luminometer (Labsystems Oy, Helsinki, Finland) at 22° C. 20 μl of ATP monitoring reagent containing luciferin and luciferase was dispensed, and an integral measurement of 10 s with 2 s lag time was performed for each well. All reagents used were supplied by Bio-Orbit Oy, Turku, Finland.
(§3) The direct luminometer output (in relative light units, RLUS) was used to calculate the cytotoxic effect. This light signal is directly proportional to the amount of […] in a wide range (determined with Bio-Orbit ATP standard, data not shown). On the other hand, the amount of ATP is directly proportional to the amount of living cells (Kangas et al., 1984). The results are expressed as percentages of the control value of untreated cells. An IC50 value (the drug concentration resulting to an ATP signal of 50% of the untreated control signal) was graphically estimated from the % of control vs. drug concentration plot.
(§4) H075-4a was also tested with several mouse cell lines in vitro (all were purchased from ATCC, Rockville, Md., USA): Lewis lung carcinoma (LL/2) (CRL-1642), B16-F0 melanoma (CRL-6322), B16-F1 melanoma (CRL-6323), KLN-205 lung squamous cell carcinoma (CRL-1453) and MLTC-1 leydig cell tumor (CRL-2065) using daunomycin, aclarubicin and H075-1a (MA 144U1) as references.
(§5) All cells grew as monolayers and were cultured at 37° C. with 5% CO2 according to ATCC standard instructions for each cell line: LL/2 in Dulbecco's modified Eagle's medium with 4.5 g/l glucose and 10% FCS, B16-F0 and B16-F1 in MEM (Eagle) in Earle's BSS with non-essential amino acids and 10% FCS, KLN-205 in MEM (Eagle) in Earle's BSS with non-essential amino acids and 10% FCS, MLTC-1 in RPMI 1640 with 25 mM HEPES and 10% FBS. All media were purchased from Gibco BRL, the serum was Gibco BRL Foetal Bovine Serum. […]

[2] = tested on: KLN-205 lung squamous cell carcinoma; test: Cytotoxicity assay, ATP detection, KLN-205; type: cell-based, mouse; details: KLN-205 cells in vitro, read-out: ED50 KLN-205
Procedure: as §1, §2, §3, §4, §5

[3] = tested on: Lewis lung carcinoma (LL/2); test: Cytotoxicity assay, ATP detection, LL/2; type: cell-based, mouse; details: LL/2 cells in vitro, read-out: ED50 LL/2
Procedure: as §1, §2, §3, §4, §5

[4] = tested on: MLTC-1 leydig cell tumor; test: Cytotoxicity assay, ATP detection, MLTC-1; type: cell-based, mouse; details: MLTC-1 cells in vitro, read-out: ED50 MLTC-1
Procedure: as §1, §2, §3, §4, §5

[5] = tested on: SK-N-MC; test: Cytotoxicity assay, ATP detection, SK-N-MC; type: cell-based; details: SK-N-MC cells in vitro; read-out: ED50 SK-N-MC
[6] = tested on: L1210 mouse lymphocytic leukemia cells; test: Flow cytometry (mode of action), cell cycle phases; type: cell-based; details: for G1 (%) / G2 (%) / S + M (%) / Cells (1000/ml): L1210 cells, 24 h incubation; for G1 (%): percentage of cells in phase G1; for G2 (%): percentage of cells in phase G2; for S + M (%): percentage of cells in phases S + M; for Cells (1000/ml): starting cell number 46000 cells/ml
Procedure: L1210 mouse lymphocytic leukemia cells growing in suspension culture were maintained at exponential growth in Dulbecco's modified Eagle's medium with 4.5 g/l glucose and 10% FBS, at 37° C. with 5% CO2. The experiments were started by adding the ethanol-dissolved anthracyclines, in amounts yielding to the appropriate final concentrations, to 25 cm^2 cell culture flasks. After the ethanol had evaporated, 5 ml of an approximately 50 000 cells per ml suspension was added to the flasks. Flow cytometric analysis was made of the original cell suspension and after one, two and three days incubation with or without the drugs.
Cells were prepared for flow cytometric DNA analysis according to the method of Vindelov et al. (1985). The analysis was performed with an Epics XL flow cytometer (Coulter Corporation, Miami, Fla.). Samples were illuminated with a […] air-cooled argon ion laser (488 nm) and the fluorescence of propidium iodide was detected through 620-nm band pass filter. The number of cells in each sample was separately counted by adding an internal calibrator (50 μl of a solution containing 1×10^6 Fluoresbrite beads/ml) to 50 μl of cell suspension.
Based on the flow cytometric studies, the cell cycle phases for the cells studied could be detected. Phase G1 is the stage for RNA and protein synthesis, but not for replication. Transition from phase G1 to phase S means the initiation of replication, and the phase will last until all of the DNA has been replicated. The period from phase S up to mitosis (M) is phase G2.

[7] = tested on: P388 leukemia; test: Cytotoxic activity in vivo: P388 leukemia model; design: species or system mice; details: 10^6 P388 cells i.p. day 0
Excerpt: P388 leukemia was maintained by serial intraperitoneal (i.p.) transplantations in DBA/2JBom female mice purchased from M & B A/S, Ry, Denmark. The animals were maintained at the facilities of Central Animal Laboratory, University of Turku. The management of the animal unit is based on and followed the guidelines: “European Convention for the protection of Vertebrate Animals used for Experimental and other Scientific Purposes, European Treaty Series No. 123 (EU No. 609/86), Official Journal of European Communities No. L 358, Strasbourg Nov. 24, 1986”, and “The Statute No. 1360/90 of the Finnish Law, Helsinki Dec. 21, 1990: Asetus kokeellisiin ja muihin tieteellisiin tarkoituksiin käytettävien selkärankaisten eläinten suojelemiseksi tehdyn eurooppalaisen yleissopimuksen voimaansaattamisesta. Suomen s{umlaut over (aa)}doskokoelma.”
The in vivo tests were started by injecting 10^6 P388 cells suspended in Dulbecco's phosphate buffered saline i.p. in mice on day 0. Groups of 3 mice were used. The drugs were administered i.p. on day 1 on the basis of individual body weight. The control group received vehicle (10% ethanol in Dulbecco's phosphate buffered saline).

Row | Compound | EC50 [5] [nM] | G1 (%) ([6]; concentration 1 × 10^−8M) | G2 (%) ([6]; concentration 1 × 10^−8M) | S + M (%) ([6]; concentration 1 × 10^−8M) | Cells (1000/ml) ([6]; concentration 1 × 10^−8M) | G1 (%) ([6]; concentration 3.3 × 10^−8M) | G2 (%) ([6]; concentration 3.3 × 10^−8M) | S + M (%) ([6]; concentration 3.3 × 10^−8M) | Cells (1000/ml) ([6]; concentration 3.3 × 10^−8M) | Median survival days (range) ([7]; 4 mg/kg i.p. on day 1) | further results
1 | CCC1(O)CC(OC2CC(N(C)C)C(OC3CC(O)C(OC4CC(O)C(O)C(C)O4)C(C)O3)C(C)O2)c2c(O)c3c(c(O)c2C1C(=O)OC)C(=O)c1cccc(O)c1C3=O (centres unmarked) [Compound H075-4a] | 9 | 40 | 12 | 48 | 88 1000/ml | 45 | 19 | 36 | 67 1000/ml | 15 (13-15) days | EC50 [1]: 2 nM; EC50 [2]: 5 nM; EC50 [3]: 8 nM; EC50 [4]: 60 nM; cell cycle phase in which cells are arrested ([6]; flow cytometric DNA analysis): arrested the cells in phase G1; Median survival days (range) ([7]; 1 mg/kg i.p. on day 1): 14 (13-15) days; Median survival days (range) ([7]; 2 mg/kg i.p. on day 1): 14 (13-16) days; Median survival days (range) ([7]; 6 mg/kg i.p. on day 1): 15 (15-16) days
2 | COc1cccc2c1C(=O)c1c(O)c3c(c(O)c1C2=O)C[C@@](O)(C(C)=O)C[C@@H]3O[C@H]1C[C@H](N)[C@H](O)[C@H](C)O1 [Daunorubicin] | 3 | 11 | 38 | 51 | 66 1000/ml | 6 | 66 | 27 | 23 1000/ml | 14 (14-16) days | EC50 ([1]; Mus musculus): 8 nM; EC50 ([2]; Mus musculus): 90 nM; EC50 ([3]; Mus musculus): 15 nM; EC50 ([4]; Mus musculus, Leydig): 900 nM
